Data from patent US11203586B2, “Iridinesulfonamide compound and use method thereof” (Chia Tai Tianqing Pharmaceutical Group Co., Ltd., priority 2016, dated 2021).

Assays:
[1] = molecular target: T1, IDH1 (R132H) (Homo sapiens (Human), UniProt O75874, R132H); test: Binding mode determination, free compound by LC-MS/MS; conditions: incubated with IDH1 (R132H), FIG. 1
Procedure: The compounds were incubated with IDH1 (R132H), and then divided into N parts. The reaction was terminated by adding acetonitrile at different time points, and the organic phase was separated by centrifugation. The resulting samples were stored at −80° C. until analysis, and the concentration of the compounds in free from were analyzed by LC-MS/MS, mobile phase A: water (0.1% of formic acid), B: acetonitrile (0.1% of formic acid), strong needle wash solution: acetonitrile:water=9:1, weak needle wash solution: acetonitrile:water=1:9.

[2] = Pharmacokinetic test; format: in vivo; conditions: male SD rats, oral 5 mg/kg
Procedure: Male SD rats were from Beijing Vital River Laboratory Animal Technology Co., Ltd., and divided into groups (3 rats per group). The rats were intragastically administered with the test sample suspension (5 mg/kg) via a single peroral administration, respectively. The animals were fasted overnight before this study. The fasting time period was from 10 hours before administration to 4 hours after administration. Blood samples were taken at 0.25, 0.5, 1, 2, 4, 6, 8 and 24 hours after administration. After the rats were anesthetized with isoflurane using an anesthesia machine for small animal, and then 0.3 mL whole blood samples were taken from the fundus venous plexus. The blood samples were placed in heparin anticoagulant tubes, and centrifuged for 5 min at 4° C. and 4000 rpm. The plasma was transferred to centrifuge tubes, and stored at −80° C. until analysis. The samples in plasma were extracted through protein precipitation. The liquid extract was analyzed by LC-MS/MS, mobile phase A: water (0.1% of formic acid), B: acetonitrile (0.1% of formic acid), strong needle wash solution: acetonitrile:water=9:1, weak needle wash solution: acetonitrile:water=1:9.

[3] = molecular target: T1, IDH1 (R132H); test: Enzyme assay, NADPH decrease detected with Diaphorase/Resazurin; format: biochemical; conditions: 40 nM enzyme, 20 μM NADPH, incubated at 23° C. for 16 hours before α-KG; 12 concentrations
From the text: (§1) Resazurin is a traditional redox dye, and after a redox reaction, it can be reduced from a blue resazurin without fluorescence to a pink fluorescent substance, resorufin, which can be measured and quantified with relative fluorescence unit (RFU) of fluorophotometer (Ex=530-570 nm, Em=590-620 nm). At present, resazurin is widely used for determining the viability of bacteria, cells, etc. and the enzyme activity detection of oxidoreductase. We detected the decrease of cofactor NADPH to determine the inhibitory activity of a compound against IDHm and detected the generation of cofactor NADPH to determine the inhibitory activity of a compound against IDH WT.
(§2) The compound was pre-incubated with IDHm and NADPH, and then the reaction was initiated by adding α-KG and performed for certain time under a linear condition.
(§3) Then, Diaphorase (lipoamide dehydrogenase) and the corresponding substrate Resazurin were added thereto for detection. Lipoamide dehydrogenase terminated the IDH2m reaction by decreasing the available cofactor NADPH, which oxidized NADPH to NADP, and reduced resazurin to high fluorescent resorufin. The amount of the remaining cofactor NADPH after a specific reaction time was quantified via an easily detectable fluorophore.
(§4) The specific operation was as follows: 2.5 μl of the compound diluted in a 3-fold gradient was added to a 384-well plate, followed by adding 5 μL of the reaction buffer (20 mM Tris-HCl, pH 7.5; 150 mM NaCl; 10 mM MgCl2; 0.4 mg/mL BSA (Bovine Serum Albumin) and 2 mM DTT (dithiothreitol)) containing 40 nM IDH1 (R132H/R132C) and 20 μM NADPH. Then, the above test mixture was incubated at 23° C. for 16 hours, and then 2.5 μL of the reaction buffer containing 4 mM α-KG was added to initiate the reaction. After they were incubated for 60 minutes at room temperature, 5 μL of the termination mixture (0.4 U/ml Diaphorase and 20 μM Resazurin) formulated with the reaction buffer was added to convert resazurin to resorufin, so as to measure the amount of the remaining NADPH. After incubating at 23° C. for 10 minutes, fluorescence values were determined through Flexstation 3 at Ex535/Em595. The enzyme activity of each compound was respectively determined at 12 concentrations, and the data were calculated using the software GraFit6.0 (Erithacus Software) to obtain the IC50 value of each compound.

[4] = molecular target: IDH1 (R132C) (Homo sapiens (Human), UniProt O75874, R132C); test: as above; format: biochemical; conditions: 40 nM enzyme, 20 μM NADPH, incubated at 23° C. for 16 hours before α-KG; 12 concentrations
From the text: as §1, §2, §3, §4

[5] = rat, 0.5% MC, 0.2% Tween80, plasma

T1 sequence (O75874 whole entry R132H): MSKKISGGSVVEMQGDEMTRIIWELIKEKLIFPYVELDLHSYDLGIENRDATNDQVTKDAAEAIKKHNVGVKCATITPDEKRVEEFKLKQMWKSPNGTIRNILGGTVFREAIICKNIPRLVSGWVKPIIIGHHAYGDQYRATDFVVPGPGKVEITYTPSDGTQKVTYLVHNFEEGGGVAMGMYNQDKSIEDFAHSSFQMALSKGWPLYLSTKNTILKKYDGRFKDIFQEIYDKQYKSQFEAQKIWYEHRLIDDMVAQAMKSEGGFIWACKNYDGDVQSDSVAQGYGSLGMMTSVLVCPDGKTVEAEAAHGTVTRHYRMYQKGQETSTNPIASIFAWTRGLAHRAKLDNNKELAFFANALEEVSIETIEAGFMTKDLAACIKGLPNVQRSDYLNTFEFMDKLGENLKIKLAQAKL
Chain of IDH1 (R132C) (O75874 whole entry R132C): as the sequence (O75874 whole entry R132H) above, with H132C counted along it

| IC50 [3] [nM] | SMILES | also measured |
| --- | --- | --- |
| < 20 | O=C(NC1CC(F)(F)C1)C(c1ccccc1Cl)N(C(=O)CNS(=O)(=O)N1CC1)c1cccc(F)c1 (stereo not drawn) [Example 10, 2-(aziridine-1-sulfonylamino)-N-(1-(2-chlorophenyl)-2-((3,3-difluorocyclobutyl)amino)-2-oxoethyl)-N-(3-fluorophenyl)acetamide] | binding of the compound to the enzyme over time [1]: increased over time; drug concentration in vivo over time ([2]; PK curve FIG. 2): decreased drug concentration in vivo over time; Cmax [2, 5]: 508 ng/mL; Tmax [2, 5]: 15 min; half-life [2, 5]: 90 min; AUC(0-inf) ([2]; rat, 0.5% MC, 0.2% Tween80, plasma, read-out: AUCINF—obs): 794 ng·h/mL |
| < 20 | O=C(NC1CC(F)(F)C1)[C@H](c1ccccc1Cl)N(C(=O)CNS(=O)(=O)N1CC1)c1cccc(F)c1 [Example 25, (S)-2-(aziridine-1-sulfonylamino)-N-(1-(2-chlorophenyl)-2-((3,3-difluorocyclobutyl)amino)-2-oxoethyl)-N-(3-fluorophenyl)acetamide] | IC50 [4]: < 20 nM |
| < 20 | O=C(NC1CC(F)(F)C1)C(c1ccccc1Cl)N(C(=O)CNS(=O)(=O)N1CC1)c1ccc(F)c(F)c1 (stereo not drawn) [Example 29, 2-(aziridine-1-sulfonylamino)-N-(1-(2-chlorophenyl)-2-((3,3-difluorocyclobutyl)amino)-2-oxoethyl)-N-(3,4-difluorophenyl)acetamide] | – |
| < 20 | O=C(NC1CCC(F)(F)CC1)C(c1ccccc1Cl)N(C(=O)CNS(=O)(=O)N1CC1)c1cccc(F)c1 (stereo not drawn) [Example 30, 2-(aziridine-1-sulfonylamino)-N-(1-(2-chlorophenyl)-2-(4,4-difluorocyclohexylamino)-2-oxoethyl)-N-(3-fluorophenyl)acetamide] | – |
| < 20 | C[C@@H]1CN1S(=O)(=O)NCC(=O)N(c1cccc(F)c1)C(C(=O)NC1CCCCC1)c1ccccc1Cl (stereo partly drawn) [Example 31, 2-(2-chlorophenyl)-N-cyclohexyl-2-(N-(3-fluorophenyl)-2-(((R)-2-methylaziridine)-1-sulfonylamino)acetamido)acetamide] | – |
| < 20 | C[C@H]1CN1S(=O)(=O)NCC(=O)N(c1cccc(F)c1)C(C(=O)NC1CCCCC1)c1ccccc1Cl (stereo partly drawn) [Example 32, 2-(2-chlorophenyl)-N-cyclohexyl-2-(N-(3-fluorophenyl)-2-(((S)-2-methylaziridine)-1-sulfonylamino)acetamido)acetamide] | – |
| < 100 | C[C@H]1CN1S(=O)(=O)NCC(=O)N(c1cc(F)cc(C#N)c1)C(C(=O)NC1CC(F)(F)C1)c1ccccc1Cl (stereo partly drawn) [Example 33, 2-(2-chlorophenyl)-2-(N-(3-cyano-5-fluorophenyl)-2-(((S)-2-methylaziridine)-1-sulfonylamino)acetamido)-N-(3,3-difluorocyclobutyl)acetamide] | – |
| < 20 | O=C(NC1CC(F)(F)C1)[C@H](c1ccccc1Cl)N(C(=O)[C@H]1CCN(S(=O)(=O)N2CC2)C1)c1cccc(F)c1 [Example 34, (S)-1-(aziridin-1-ylsulfonyl)-N—((S)-1-(2-chlorophenyl)-2-((3,3-difluorocyclobutyl)amino)-2-oxoethyl)-N-(3-fluorophenyl)pyrrolidine-3-carboxamide] | – |
| < 20 | O=C(NC1CC(F)(F)C1)[C@@H](c1ccccc1Cl)N(C(=O)[C@H]1CCN(S(=O)(=O)N2CC2)C1)c1cccc(F)c1 [Example 35, (S)-1-(aziridin-1-ylsulfonyl)-N—((R)-1-(2-chlorophenyl)-2-((3,3-difluorocyclobutyl)amino)-2-oxoethyl)-N-(3-fluorophenyl)pyrrolidine-3-carboxamide] | – |
| < 20 | O=C(NC1CC(F)(F)C1)[C@H](c1ccccc1Cl)N(C(=O)[C@@H]1CCN(S(=O)(=O)N2CC2)C1)c1cccc(F)c1 [Example 36, (R)-1-(aziridin-1-ylsulfonyl)-N—((S)-1-(2-chlorophenyl)-2-((3,3-difluorocyclobutyl)amino)-2-oxoethyl)-N-(3-fluorophenyl)pyrrolidine-3-carboxamide] | – |
| < 1000 | O=C(NC1CC(F)(F)C1)[C@@H](c1ccccc1Cl)N(C(=O)[C@@H]1CCN(S(=O)(=O)N2CC2)C1)c1cccc(F)c1 [Example 37, (R)-1-(aziridin-1-ylsulfonyl)-N—((R)-1-(2-chlorophenyl)-2-((3,3-difluorocyclobutyl)amino)-2-oxoethyl)-N-(3-fluorophenyl)pyrrolidine-3-carboxamide] | – |
